Measured values reported in the supplement of paper PMC10307832.

How the values were obtained:
Assay in all cases: relative viability (nuclei count vs DMSO), 5 days (fraction); higher = more cells survive
Metformin + Alpelisib = compound: CN(C)C(=N)NC(=N)N [Metformin] + Cc1nc(NC(=O)N2CCC[C@H]2C(N)=O)sc1-c1ccnc(C(C)(C)C(F)(F)F)c1 [Alpelisib] (partner 2 µM)
How it was run: (§1)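 Five library-drug doses in √10 steps were combined with a fixed anchor-drug dose, or a single drug was given alone, by pin tool to lung cancer cell lines in 1536-well plates the day after seeding. Nuclei were stained and counted after 5 days. Relative viability is the nuclei count in treated wells over that in vehicle wells, taken as the median of duplicate plates.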

Apatinib + Vorinostat = compound: N#CC1(c2ccc(NC(=O)c3cccnc3NCc3ccncc3)cc2)CCCC1 [Apatinib] + O=C(CCCCCCC(=O)Nc1ccccc1)NO [Vorinostat] (partner 1 µM)
How it was run: as §1

Metformin + Phenformin = compound: CN(C)C(=N)NC(=N)N [Metformin] + N=C(N)NC(=N)NCCc1ccccc1 [Phenformin] (partner 250 µM)
How it was run: as §1

Metformin + Trametinib = compound: CN(C)C(=N)NC(=N)N [Metformin] + CC(=O)Nc1cccc(-n2c(=O)n(C3CC3)c(=O)c3c(Nc4ccc(I)cc4F)n(C)c(=O)c(C)c32)c1 [Trametinib] (partner 0.02 µM)
How it was run: as §1

Cell Line	relative viability (Metformin + Alpelisib; first compound 10 µM)	relative viability (Metformin + Alpelisib; first compound 31.62 µM)	relative viability (Metformin + Alpelisib; first compound 100 µM)	relative viability (Metformin + Alpelisib; first compound 316.23 µM)	relative viability (Metformin + Alpelisib; first compound 1000 µM)	relative viability (Apatinib + Vorinostat; first compound 0.08 µM)	relative viability (Apatinib + Vorinostat; first compound 0.253 µM)	relative viability (Apatinib + Vorinostat; first compound 0.8 µM)	relative viability (Apatinib + Vorinostat; first compound 8 µM)	relative viability (Metformin + Phenformin; first compound 31.62 µM)	relative viability (Metformin + Phenformin; first compound 100 µM)	relative viability (Metformin + Phenformin; first compound 316.23 µM)	relative viability (Metformin + Phenformin; first compound 1000 µM)	relative viability (Metformin + Trametinib; first compound 10 µM)	relative viability (Metformin + Trametinib; first compound 31.62 µM)	relative viability (Metformin + Trametinib; first compound 100 µM)	relative viability (Metformin + Trametinib; first compound 316.23 µM)	relative viability (Metformin + Trametinib; first compound 1000 µM)	relative viability (Apatinib + Vorinostat; first compound 2.53 µM)	relative viability (Metformin + Phenformin; first compound 10 µM)
HARA	0.915	0.902	1.06	0.89	0.964	0.599	0.556	0.523	0.51	0.459	0.518	0.493	0.591	1.45	1.35	1.27	1.22	1.13		
NCI-H1793	1.17	1.03	0.953	0.761	0.919	0.948	0.779	0.773	0.628		0.403	0.366	0.562	0.432	0.454	0.413	0.45	0.507	0.522	0.431
NCI-H727	0.657	0.749	0.469	0.647	0.533	1.18		1.23	0.999	0.707	0.585		0.573	0.404	0.369	0.41		0.349	1.08	0.321
201T		0.987	0.989	0.955	0.985	0.724	0.918	0.898	0.966	0.426	0.47	0.435	0.414		0.679	0.735	0.684	0.681	0.969	
NCI-H838	1.04	0.969	0.969	0.988	1.02	0.778	0.784	0.702	0.722	0.671	0.661	0.667	0.749	0.557	0.572	0.541	0.525	0.579	0.652	0.709
NCI-H1734	0.697	0.718	0.715	0.681	0.827	0.935	0.947	0.773	0.728	0.447	0.405	0.367	0.379	0.652	0.763	0.653	0.662	0.726	0.727	0.431
NCI-H1915		1.14	1.09	1.04	1.11	0.578	0.519	0.495	0.314	0.357	0.384	0.352	0.365		0.302	0.302	0.289		0.37	
BEN	1.16	1.47	1.43	1.03	1.24	0.584	0.62	0.609	0.536	0.292	0.297	0.27	0.252	1.25	1.5	1.43	1.13	1.21	0.589	0.295
NCI-H1355	0.746	0.787	0.853	0.857	0.842	0.677	0.703	0.616	0.569	0.412	0.474	0.432	0.47	0.416	0.356	0.395	0.474	0.427	0.515	0.472
NCI-H1975	0.766	0.839	0.862	0.707	0.861	0.761	0.696	0.641	0.557	0.436	0.418	0.414	0.404	0.356	0.325	0.387	0.326	0.373	0.634	0.422
HCC-44	0.782	0.825	0.931	0.711	0.813	1.07	1.07	1.08	0.934	0.35	0.298	0.223	0.166		1.04	1.12	0.931	0.989	1.01	0.236
NCI-H2087	1.09	0.858	1.05	0.982	0.963	0.768	0.591	0.747	0.688	0.435	0.507	0.398	0.386	0.232	0.222	0.18	0.152	0.254	0.579	
